Results from ChEMBL document CHEMBL5036301, “Heteroaryl ether analogues of an antileishmanial 7-substituted 2-nitroimidazooxazine lead afford attenuated hERG risk: In vitro and in vivo appraisal” (Eur J Med Chem, 2021).
Converted amounts (≈) assume the structure as drawn.

System: MRC5
Experiment: Cytotoxicity against human MRC5 cells assessed as cell viability after 72 hrs by fluorimetric analysis
Format: ADME, cell-based
Conditions: MRC5, 72 h

`O=[N+]([O-])c1cn2c(n1)OC(COc1cccc(C(F)(F)F)n1)CC2` (configuration not stated) and `O=[N+]([O-])c1cn2c(n1)OC(COc1ccc(C(F)(F)F)cn1)CC2` (configuration not stated) cannot be ordered by IC50: over 64000 nM for the first, over 64000 nM for the second.

`CC1(COc2cccc(C(F)(F)F)n2)CCn2cc([N+](=O)[O-])nc2O1` (configuration not stated) and `C[C@]1(COc2ccc(C(F)(F)F)nc2)CCn2cc([N+](=O)[O-])nc2O1` cannot be ordered by IC50: over 64000 nM for the first, over 64000 nM for the second.

`O=[N+]([O-])c1cn2c(n1)OC(COc1ccc(C(F)(F)F)nc1)CC2` (configuration not stated) and `O=[N+]([O-])c1cn2c(n1)OC(COc1ccc(Cl)cn1)CC2` (configuration not stated) cannot be ordered by IC50: over 64000 nM for the first, over 64000 nM for the second.

System: Leishmania infantum
Experiment: Antileishmanial activity against Leishmania infantum MHOM/MA(BE)/67 amastigotes infected in macrophages assessed as reduction in parasite burden by giemsa staining based microscopic analysis
Format: functional, organism-based
Conditions: not given

`O=[N+]([O-])c1cn2c(n1)OC(COc1cccc(C(F)(F)F)n1)CC2` (configuration not stated) and `O=[N+]([O-])c1cn2c(n1)OC(COc1ccc(C(F)(F)F)cn1)CC2` (configuration not stated) cannot be ordered by IC50: over 64000 nM for the first, over 64000 nM for the second.

First: CC1(COc2cccc(C(F)(F)F)n2)CCn2cc([N+](=O)[O-])nc2O1 (configuration not stated)
Second: C[C@]1(COc2ccc(C(F)(F)F)nc2)CCn2cc([N+](=O)[O-])nc2O1
The IC50 of the first is 2.2-fold lower: 580 nM for the first, 1300 nM for the second. The first is the more potent here.

`O=[N+]([O-])c1cn2c(n1)OC(COc1ccc(C(F)(F)F)nc1)CC2` (configuration not stated) and `O=[N+]([O-])c1cn2c(n1)OC(COc1ccc(Cl)cn1)CC2` (configuration not stated) cannot be ordered by IC50: over 64000 nM for the first, over 64000 nM for the second.

System: Mycobacterium tuberculosis
Experiment: Antitubercular activity against Mycobacterium tuberculosis H37Rv assessed as reduction in microbial growth under anaerobic condition by luminescence analysis
Format: functional
Conditions: not given

Compared with `O=[N+]([O-])c1cn2c(n1)OC(COc1ccc(OC(F)(F)F)cc1)CC2` (configuration not stated), `O=[N+]([O-])c1cn2c(n1)OC(COc1ccc(C(F)(F)F)cn1)CC2` (configuration not stated) is 4.3-fold higher in MIC: 4.7 µM for the first, 20 µM for the second.

System: not listed separately
Experiment: AUClast in mouse at 1 mg/kg, iv measured upto 24 hrs LC-MS/MS analysis
Conditions: in vivo

`C[C@]1(COc2ccc(C(F)(F)F)nc2)CCn2cc([N+](=O)[O-])nc2O1` and `O=[N+]([O-])c1cn2c(n1)OC(COc1ccc(C(F)(F)F)nc1)CC2` (configuration not stated) are within 1.5-fold of each other in AUC(0-t) at 24 h: 2520 ng·h/mL for the first, 3100 ng·h/mL for the second.

System: not listed separately
Experiment: Selectivity index, ratio IC50 for cytotoxicity against human MRC5 cells to IC50 for antileishmanial activity against Leishmania infantum MHOM/MA(BE)/67 amastigotes infected in macrophages
Conditions: not given

`CC1(COc2cccc(C(F)(F)F)n2)CCn2cc([N+](=O)[O-])nc2O1` (configuration not stated) gave a selectivity ratio of over 110.

System: not listed separately
Experiment: in vivo
Conditions: mouse, po, 25 mg/kg

`C[C@]1(COc2ccc(C(F)(F)F)nc2)CCn2cc([N+](=O)[O-])nc2O1` and `O=[N+]([O-])c1cn2c(n1)OC(COc1ccc(C(F)(F)F)nc1)CC2` (configuration not stated) are within 1.5-fold of each other in Cmax at 24 h: 7300 ng/mL for the first, 5800 ng/mL for the second.

System: Trypanosoma cruzi
Experiment: Antitrypanosomal activity against Trypanosoma cruzi Tulahuen CL2 infected in human MRC-5 cells assessed as parasite growth
Format: functional, organism-based
Conditions: Tulahuen CL2, MRC5

Compared with `O=[N+]([O-])c1cn2c(n1)OC(COc1ccc(OC(F)(F)F)cc1)CC2` (configuration not stated), `O=[N+]([O-])c1cn2c(n1)OC(COc1ccc(C(F)(F)F)nc1)CC2` (configuration not stated) is 18-fold higher in IC50: 61 nM for the first, 1100 nM for the second.

Compared with `O=[N+]([O-])c1cn2c(n1)OC(COc1cccc(C(F)(F)F)n1)CC2` (configuration not stated), `O=[N+]([O-])c1cn2c(n1)OC(COc1ccc(C(F)(F)F)cn1)CC2` (configuration not stated) is 1.9-fold higher in IC50: 530 nM for the first, 1000 nM for the second. The first is the more potent here.

Going from `CC1(COc2cccc(C(F)(F)F)n2)CCn2cc([N+](=O)[O-])nc2O1` (configuration not stated) to `C[C@]1(COc2ccc(C(F)(F)F)nc2)CCn2cc([N+](=O)[O-])nc2O1`, the IC50 rises from 440 nM to 900 nM (2-fold).

`O=[N+]([O-])c1cn2c(n1)OC(COc1ccc(Cl)cn1)CC2` (configuration not stated) gave an IC50 of 940 nM.

System: not listed separately
Experiment: Kinetic solubility of compound in 0.1 M Hcl at pH1 by HPLC analysis
Format: physicochemical
Conditions: pH 1, read-out: Kinetic_solubility

In the case of `O=[N+]([O-])c1cn2c(n1)OC(COc1ccc(C(F)(F)F)cn1)CC2` (configuration not stated), the solubility kinetic is reported as 32 µg/mL (≈ 93 µM).

System: not listed separately
Experiment: Clearance in mouse at 1 mg/kg, iv measured upto 24 hrs LC-MS/MS analysis
Conditions: in vivo

`C[C@]1(COc2ccc(C(F)(F)F)nc2)CCn2cc([N+](=O)[O-])nc2O1` and `O=[N+]([O-])c1cn2c(n1)OC(COc1ccc(C(F)(F)F)nc1)CC2` (configuration not stated) are within 1.5-fold of each other in clearance at 24 h: 6.6 mL/min/kg for the first, 5.4 mL/min/kg for the second.

System: Mycobacterium tuberculosis
Experiment: Antitubercular activity against Mycobacterium tuberculosis H37Rv assessed as reduction in microbial growth under aerobic condition by luminescence analysis
Format: functional
Conditions: not given

Compared with `O=[N+]([O-])c1cn2c(n1)OC(COc1ccc(OC(F)(F)F)cc1)CC2` (configuration not stated), `O=[N+]([O-])c1cn2c(n1)OC(COc1ccc(C(F)(F)F)cn1)CC2` (configuration not stated) is 2-fold lower in MIC: 5.2 µM for the first, 2.6 µM for the second.

System: Leishmania donovani
Experiment: Antileishmanial activity against Leishmania donovani amastigotes infected in mouse J774A.1 cells incubated for 72 hrs by luciferase assay
Format: functional, organism-based
Conditions: J774.A1, 72 h

Going from `O=[N+]([O-])c1cn2c(n1)OC(COc1ccc(OC(F)(F)F)cc1)CC2` (configuration not stated) to `O=[N+]([O-])c1cn2c(n1)OC(COc1ccc(C(F)(F)F)nc1)CC2` (configuration not stated), the IC50 rises from 40 nM to 110 nM (2.8-fold).

`O=[N+]([O-])c1cn2c(n1)OC(COc1ccc(C(F)(F)F)cn1)CC2` (configuration not stated) and `O=[N+]([O-])c1cn2c(n1)OC(COc1ccc(Cl)cn1)CC2` (configuration not stated) are within 1.5-fold of each other in IC50: 80 nM for the first, 100 nM for the second.

With `C[C@]1(COc2ccc(C(F)(F)F)nc2)CCn2cc([N+](=O)[O-])nc2O1` the IC50 was 440 nM.

System: not listed separately
Experiment: AUClast in mouse at 25 mg/kg, po measured upto 24 hrs LC-MS/MS analysis
Conditions: in vivo

Going from `C[C@]1(COc2ccc(C(F)(F)F)nc2)CCn2cc([N+](=O)[O-])nc2O1` to `O=[N+]([O-])c1cn2c(n1)OC(COc1ccc(C(F)(F)F)nc1)CC2` (configuration not stated), the AUC(0-t) at 24 h falls from 37200 ng·h/mL to 15100 ng·h/mL (2.5-fold).

Biological target: hERG (KCNH2) (Homo sapiens, UniProt Q12809)
Sequence (Q12809 whole entry): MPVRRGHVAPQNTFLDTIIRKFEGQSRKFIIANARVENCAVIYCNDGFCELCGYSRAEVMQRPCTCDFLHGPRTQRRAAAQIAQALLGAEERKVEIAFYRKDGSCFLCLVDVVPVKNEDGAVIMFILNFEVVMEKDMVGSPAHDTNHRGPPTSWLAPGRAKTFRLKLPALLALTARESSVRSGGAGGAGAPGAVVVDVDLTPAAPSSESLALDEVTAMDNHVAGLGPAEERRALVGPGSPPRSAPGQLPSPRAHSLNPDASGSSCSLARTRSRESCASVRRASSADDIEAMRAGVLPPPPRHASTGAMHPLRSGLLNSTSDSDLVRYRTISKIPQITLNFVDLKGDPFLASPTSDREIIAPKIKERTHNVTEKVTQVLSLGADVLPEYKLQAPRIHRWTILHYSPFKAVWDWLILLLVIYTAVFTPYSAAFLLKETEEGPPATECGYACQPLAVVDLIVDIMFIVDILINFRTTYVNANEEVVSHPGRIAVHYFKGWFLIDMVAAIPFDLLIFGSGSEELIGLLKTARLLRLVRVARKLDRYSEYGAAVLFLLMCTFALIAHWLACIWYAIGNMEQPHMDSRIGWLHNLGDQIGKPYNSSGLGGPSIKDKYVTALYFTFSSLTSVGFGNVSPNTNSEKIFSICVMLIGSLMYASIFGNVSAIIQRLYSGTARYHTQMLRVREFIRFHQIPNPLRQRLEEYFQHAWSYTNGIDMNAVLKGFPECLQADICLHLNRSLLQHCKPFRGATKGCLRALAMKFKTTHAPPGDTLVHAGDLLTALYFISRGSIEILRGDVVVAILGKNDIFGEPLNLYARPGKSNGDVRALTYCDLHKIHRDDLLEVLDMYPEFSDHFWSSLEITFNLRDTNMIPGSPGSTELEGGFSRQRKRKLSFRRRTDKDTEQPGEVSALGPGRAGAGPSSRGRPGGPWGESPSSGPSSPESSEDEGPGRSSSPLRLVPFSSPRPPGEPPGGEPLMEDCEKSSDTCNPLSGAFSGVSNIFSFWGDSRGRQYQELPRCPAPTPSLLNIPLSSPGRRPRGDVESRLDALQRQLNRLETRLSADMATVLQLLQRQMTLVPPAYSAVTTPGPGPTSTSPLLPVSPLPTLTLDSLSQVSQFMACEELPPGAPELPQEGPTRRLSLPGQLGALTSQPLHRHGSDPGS
Experiment: Inhibition of human ERG expressed in HEK293 cells at 10 uM relative to control
Format: cell-based
Conditions: HEK293 cells expressing human ERG

`O=[N+]([O-])c1cn2c(n1)OC(COc1ccc(C(F)(F)F)cn1)CC2` (configuration not stated) and `O=[N+]([O-])c1cn2c(n1)OC(COc1ccc(C(F)(F)F)nc1)CC2` (configuration not stated) are the same in inhibition at 10 µM: 4% for the first, 4% for the second.

Work on `O=[N+]([O-])c1cn2c(n1)OC(COc1ccc(Cl)cn1)CC2` (configuration not stated) yielded an inhibition at 10 µM of 17%.

System: not listed separately
Experiment: Volume of distribution at steady state in mouse at 1 mg/kg, iv measured upto 24 hrs LC-MS/MS analysis
Conditions: in vivo

Going from `C[C@]1(COc2ccc(C(F)(F)F)nc2)CCn2cc([N+](=O)[O-])nc2O1` to `O=[N+]([O-])c1cn2c(n1)OC(COc1ccc(C(F)(F)F)nc1)CC2` (configuration not stated), the Vd at 24 h falls from 0.91 L/kg to 0.47 L/kg (1.9-fold).

System: not listed separately
Experiment: Kinetic solubility of compound in water at pH7 by HPLC analysis
Conditions: pH 7

`O=[N+]([O-])c1cn2c(n1)OC(COc1ccc(C(F)(F)F)cn1)CC2` (configuration not stated) and `O=[N+]([O-])c1cn2c(n1)OC(COc1ccc(C(F)(F)F)nc1)CC2` (configuration not stated) are within 1.5-fold of each other in solubility kinetic: 37 µg/mL (≈ 107 µM) for the first, 29 µg/mL (≈ 84.2 µM) for the second.

Going from `C[C@]1(COc2ccc(C(F)(F)F)nc2)CCn2cc([N+](=O)[O-])nc2O1` to `O=[N+]([O-])c1cn2c(n1)OC(COc1ccc(Cl)cn1)CC2` (configuration not stated), the solubility kinetic rises from 12 µg/mL (≈ 33.5 µM) to 18 µg/mL (≈ 57.9 µM) (1.5-fold).

System: not listed separately
Experiment: Half life in mouse at 1 mg/kg, iv measured upto 24 hrs LC-MS/MS analysis
Conditions: in vivo

`C[C@]1(COc2ccc(C(F)(F)F)nc2)CCn2cc([N+](=O)[O-])nc2O1` and `O=[N+]([O-])c1cn2c(n1)OC(COc1ccc(C(F)(F)F)nc1)CC2` (configuration not stated) are within 1.5-fold of each other in half-life at 24 h: 1.3 h for the first, 1.1 h for the second.

System: not listed separately
Experiment: in vivo
Conditions: mouse, po, 25 mg/kg
Remark: another data set of the same source

Compared with `C[C@]1(COc2ccc(C(F)(F)F)nc2)CCn2cc([N+](=O)[O-])nc2O1`, `O=[N+]([O-])c1cn2c(n1)OC(COc1ccc(C(F)(F)F)nc1)CC2` (configuration not stated) is 8-fold lower in Tmax at 24 h: 2 h for the first, 0.25 h for the second.

System: not listed separately
Experiment: Initial plasma concentration in mouse at 1 mg/kg, iv measured upto 24 hrs LC-MS/MS analysis
Conditions: not given

First: C[C@]1(COc2ccc(C(F)(F)F)nc2)CCn2cc([N+](=O)[O-])nc2O1
Second: O=[N+]([O-])c1cn2c(n1)OC(COc1ccc(C(F)(F)F)nc1)CC2 (configuration not stated)
The C0 at 24 h of the first is 2.1-fold lower: 1100 ng/mL for the first, 2300 ng/mL for the second.

System: Leishmania donovani
Experiment: Antileishmanial activity against Leishmania donovani amastigotes infected in BALB/C mouse assessed as reduction in parasite burden in liver tissue at 50 mg/kg, po administered once per day for 5 days relative to control
Format: functional
Conditions: 120 h, time 5 day

Going from `O=[N+]([O-])c1cn2c(n1)OC(COc1ccc(C(F)(F)F)cn1)CC2` (configuration not stated) to `C[C@]1(COc2ccc(C(F)(F)F)nc2)CCn2cc([N+](=O)[O-])nc2O1`, the inhibition in vivo at 50 mg/kg rises from 46% to 72%.

System: not listed separately
Experiment: in vivo
Conditions: mouse, po, 25 mg/kg
Remark: another data set of the same source

First: C[C@]1(COc2ccc(C(F)(F)F)nc2)CCn2cc([N+](=O)[O-])nc2O1
Second: O=[N+]([O-])c1cn2c(n1)OC(COc1ccc(C(F)(F)F)nc1)CC2 (configuration not stated)
The bioavailability at 24 h of the first is higher: 59% for the first, 39% for the second.
